The results in this text go back to patent US20040197294A1, “Cosmetic and/or pharmaceutical preparations” (priority 2001, published 2004).

Read-outs that look alike come from different tables or passages of the source.

Data set [1] deals with pig's epidermis. Description: Dermatological compatibility: transepidermal water loss (TEWL), gravimetric. Particulars: […] by weight partial glyceride or glycerol ether in 17% by weight Plantapon PS 10, pH 5.5; skin treated 30 minutes at 40° C.; lower = better compatibility.
Experimental: (§1) Dermatological compatibility was evaluated by determining the transepidermal water loss (TEWL) in a pig's epidermis. To this end, defined pieces of skin were treated with the various test solutions for 30 minutes at 40° C. and the TEWL value was gravimetrically determined. The test solutions were mixtures of 17% by weight Plantapon® PS 10 (sodium lauryl ether sulfate and Lauryl Glycoside, Cognis Dusseldorf) with 1.5% by weight fatty acid partial glycerides or glycerol ethers (see Table 1) in preservative-containing water (WAS 10% by weight). The pH was adjusted to 5.5 with citric acid.
Data set [2] relates to pig's epidermis. Particulars: pH 5.5.
Experimental: as §1

In the case of `CCCCCCCCOCC(O)CO` (centres unmarked) [Example 2, Glycerol monocapryl ether (>90)], the “TEWL [%-rel] = [treated/untreated * 100] − 100%” value with pig's epidermis [1] was determined as 5.0 %-rel.
Still for that read-out and setting: the result for `CCCCCCCCCCCC(=O)OCC(O)CO` (centres unmarked) [Example 10, Lauric acid monoglyceride (>90)] reads 10.5 %-rel.
Consider “Isostearic acid mono/diglyceride (65:35) [Example 7]”, for which, in the data set with pig's epidermis [2], the “TEWL [%-rel] = [treated/untreated * 100] − 100%” value is given as 22.0 %-rel.
For “Isostearic acid monoglyceride (>90) [Example 8]”, the “TEWL [%-rel] = [treated/untreated * 100] − 100%” value in the data set with pig's epidermis [1] was determined as 18.5 %-rel.
Turning to “Lauric acid mono/diglyceride (65:35) [Example 9]”, the “TEWL [%-rel] = [treated/untreated * 100] − 100%” value with pig's epidermis [2] was determined as 20.5 %-rel.
